In patent publication US20260191933A1, “PHARMACEUTICAL COMBINATIONS AND USES THEREOF” (The University of Melbourne, priority 2022, published 2026):

Assays:
[1] = biological target: T1, aggrecan (Bos taurus, UniProt P13608); experiment: CSPG-ECM binding assay, aggrecan; details: plates coated with aggrecan, 2-hours
T1 construct: purchased Merck Millipore A1960
Experimental: (§1) To determine the interaction of insulin with CSPG-ECM components in vitro, flat-bottom 96-well plates were first coated with 10 μg/ml poly-L-lysine overnight, followed by a rinsing with water. A purified CSPGs mix containing neurocan, phosphacan, versican and aggrecan (CC117, Merck Millipore, MA), purified aggrecan (A1960, Merck Millipore, MA) or purified chondroitin 4-sulfate (59004, Selleck Chemicals, TX), were coated onto the 96-well plates at a concentration of 10 μg/ml for 4 h at RT, followed by a rinse with water. Insulin-FITC was incubated on plates containing ECM at concentrating ranging from 5 ng/ml-1 mg/ml for 2 h at RT and protected from light. Control wells contained either no ECM, bovine serum albumin (10 μg/ml) or poly-L-lysine alone. Wells were washed 3 times with water and imaged at 495 nm using a SPECTROstar Nano Microplate Reader (BMG Labtech, Germany). To digest CSPG-ECM or to negate CSPG-ECM negative charge. wells were incubated with either chABC (0.5 U/ml) or poly-1-arginine (10 μg/ml, P7762, Merck Millipore, MA) for 1 h at 37° C. after the ECM coating, washed 3 times with water and then incubated with insulin-FITC.

[2] = system: chondroitin 4-sulfate; experiment: CSPG-ECM binding assay, chondroitin 4-sulfate; details: plates coated with chondroitin 4-sulfate (C4S), 2-hours
Experimental: as §1

[3] = system: mixed CSPGs (aggrecan, neurocan, phosphacan and versican); experiment: CSPG-ECM binding assay, mixed CSPGs
Experimental: as §1

T1 sequence (P13608 17-2364): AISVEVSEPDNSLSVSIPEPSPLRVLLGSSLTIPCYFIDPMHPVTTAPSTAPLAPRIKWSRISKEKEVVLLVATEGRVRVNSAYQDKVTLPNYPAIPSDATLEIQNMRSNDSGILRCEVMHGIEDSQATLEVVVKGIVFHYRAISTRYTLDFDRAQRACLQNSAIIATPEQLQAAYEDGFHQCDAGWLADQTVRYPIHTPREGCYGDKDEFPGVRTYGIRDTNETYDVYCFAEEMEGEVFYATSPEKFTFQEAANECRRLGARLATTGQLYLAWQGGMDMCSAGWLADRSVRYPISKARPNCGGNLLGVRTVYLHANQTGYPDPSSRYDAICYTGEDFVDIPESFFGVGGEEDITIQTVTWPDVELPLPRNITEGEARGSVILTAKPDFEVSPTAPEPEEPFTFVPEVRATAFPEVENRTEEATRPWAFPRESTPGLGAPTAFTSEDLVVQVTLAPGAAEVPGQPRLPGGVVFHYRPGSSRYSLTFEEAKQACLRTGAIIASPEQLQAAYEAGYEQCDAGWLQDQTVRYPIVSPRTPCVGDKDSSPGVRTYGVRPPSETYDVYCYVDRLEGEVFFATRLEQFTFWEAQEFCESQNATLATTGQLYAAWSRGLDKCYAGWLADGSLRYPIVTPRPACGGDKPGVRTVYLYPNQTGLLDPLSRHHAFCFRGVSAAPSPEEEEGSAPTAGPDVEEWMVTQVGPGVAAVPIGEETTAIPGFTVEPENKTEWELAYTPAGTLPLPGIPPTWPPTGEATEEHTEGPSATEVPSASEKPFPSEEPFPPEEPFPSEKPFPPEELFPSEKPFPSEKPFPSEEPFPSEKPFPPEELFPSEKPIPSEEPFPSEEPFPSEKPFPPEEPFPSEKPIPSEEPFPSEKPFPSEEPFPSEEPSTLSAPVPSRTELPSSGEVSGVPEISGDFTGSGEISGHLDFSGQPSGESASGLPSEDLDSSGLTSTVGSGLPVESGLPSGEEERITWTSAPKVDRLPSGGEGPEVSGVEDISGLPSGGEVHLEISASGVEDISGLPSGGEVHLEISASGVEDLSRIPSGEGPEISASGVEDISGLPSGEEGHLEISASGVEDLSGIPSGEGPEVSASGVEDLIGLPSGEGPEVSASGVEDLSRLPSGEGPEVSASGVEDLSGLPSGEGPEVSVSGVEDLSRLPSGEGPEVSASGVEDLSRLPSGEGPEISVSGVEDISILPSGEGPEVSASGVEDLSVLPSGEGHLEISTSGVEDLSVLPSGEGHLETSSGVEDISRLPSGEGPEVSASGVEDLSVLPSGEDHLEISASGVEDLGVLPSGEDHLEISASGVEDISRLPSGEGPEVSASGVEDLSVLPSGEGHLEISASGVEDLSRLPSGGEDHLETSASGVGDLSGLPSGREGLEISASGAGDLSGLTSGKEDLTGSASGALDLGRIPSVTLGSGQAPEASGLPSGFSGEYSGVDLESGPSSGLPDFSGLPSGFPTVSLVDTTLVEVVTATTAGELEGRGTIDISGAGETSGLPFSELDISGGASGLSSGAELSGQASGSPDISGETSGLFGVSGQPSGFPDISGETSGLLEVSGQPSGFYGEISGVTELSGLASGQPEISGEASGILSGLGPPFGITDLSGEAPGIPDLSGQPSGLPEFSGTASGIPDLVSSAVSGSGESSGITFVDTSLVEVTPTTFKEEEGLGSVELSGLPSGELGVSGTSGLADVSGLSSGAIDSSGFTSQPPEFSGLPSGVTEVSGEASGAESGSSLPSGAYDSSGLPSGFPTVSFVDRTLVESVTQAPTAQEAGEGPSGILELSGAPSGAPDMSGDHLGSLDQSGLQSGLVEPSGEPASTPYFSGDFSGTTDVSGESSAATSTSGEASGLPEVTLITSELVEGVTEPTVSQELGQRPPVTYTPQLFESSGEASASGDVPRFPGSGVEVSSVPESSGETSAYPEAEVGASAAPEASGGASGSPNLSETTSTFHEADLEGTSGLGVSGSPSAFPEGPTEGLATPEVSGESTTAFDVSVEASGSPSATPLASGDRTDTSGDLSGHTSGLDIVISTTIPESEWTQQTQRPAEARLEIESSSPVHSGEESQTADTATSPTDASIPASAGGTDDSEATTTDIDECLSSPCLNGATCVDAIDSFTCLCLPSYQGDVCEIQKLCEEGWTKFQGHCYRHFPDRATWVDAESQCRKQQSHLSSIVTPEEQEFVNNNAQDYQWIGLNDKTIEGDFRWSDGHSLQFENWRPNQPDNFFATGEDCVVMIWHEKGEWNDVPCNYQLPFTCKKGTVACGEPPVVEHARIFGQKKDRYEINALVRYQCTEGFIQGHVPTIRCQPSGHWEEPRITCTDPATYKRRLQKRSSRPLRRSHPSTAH

insulin-FITC: fluorescein isothiocyanate tagged insulin
binding of insulin-FITC [1]: specific dose-dependent binding | binding of insulin-FITC [2]: specific dose-dependent binding | binding of insulin-FITC ([3]; plates coated with mixed CSPGs, 2-hours): specific dose-dependent binding

poly-arginine
insulin-ECM interactions ([3]; CSPG mix, in the presence of poly-arginine): significantly reduced
